Measurements: patent publication US10955415B2, “CD247 as a biomarker for assessing the effect of chemotherapeutic and biological drugs” (YISSUM RESEARCH DEVELOPMENT COMPANY OF THE HEBREW …, priority 2011, dated 2021)
Entries after “also recorded” stand apart in the source; their conditions may differ.

Columns and labels:
[1] = system: CD3ε chain; parameters: species or system mice; details: mouse, in vivo
[2] = system: CD4+Foxp3+ Treg cells; parameters: species or system mice; details: mouse, in vivo
[3] = system: CD247 (ζ chain); parameters: species or system mice; details: mouse, in vivo; for increase in the expression value of CD247 upon treatment: ip
[4] = system: MDSCs (Gr1+CD11b+); parameters: species or system mice; details: mouse, in vivo
[5] = system: MDSCs; assay type: in vivo, mice; details: spleen of BCG-inflamed mice, monotherapy, MFI
[6] = system: CD11b+CD11c+ and CD11b+F4/80+ cells; assay: Myeloid differentiation state in spleen (DCs, macrophages, APC maturation); assay type: in vivo; details: BCG-inflamed mice
From the text: FIG. 18A-18E. Splenocytes and PBLs from mice untreated (naïve), inflamed, or inflamed and treated with 5-FU or CPT-11 were fixed, permeabilized, and double stained for the expression of CD247 (ζ-chain) (FIGS. 18A, 18B) and CD3ε-chain (FIGS. 18D, 18E), as shown by mean fluorescence intensity (MFI), measured in gated CD3^+ cells. FIG. 18C: Splenocytes from mice, naïve, inflamed and inflamed treated with 5-FU or CPT-11, were labeled with CFSE and activated with anti-CD3 and anti-CD28 antibodies or left non-activated. The proliferative response was assessed by monitoring cell divisions of gated CFSE-labeled Thy1.2+ (CD90+) T-cells. The percent of proliferating cells was calculated and compared to steady state levels of non-activated cells per each group. Data from three independent experiments is presented (n=3). Statistical analyses using t test indicated significant differences at 95%. Means and SEM are shown. *, P<0.05; **, P<0.01. FIG. 18F-18I. For the detection of myeloid differentiation state, splenocytes from each group were stained for (18F) DC11b^+CD11c^+ cells (representing DCs), (18G) DC11b^+F4/80^+ cells (representing monocytes), (18H) CD11c^+MHCII^+CD80^+ cells (representing fully differentiated […] as antigen presenting cells) and (18I) F4/80^+MHCII^+CD80^+ cells (representing fully differentiated […] as antigen presenting cells). Data from three independent experiments (n=4) is presented. Statistical analyses using t test indicated significant differences at 95%. Means and SEM are shown. *, P<0.05; **, P<0.01; ***, P<0.001. Abbreviations: Nor. (normal), Rel. (relative), Inf. (inflamed), ce. Pro. (cell proliferation)
Isolated splenocytes and peripheral blood leukocytes (PBLs) were treated with erythrocyte lysis buffer and washed in PBS. Cells were pre-coated with anti-CD16/CD32 (Biolegend) for FcR blockage. For surface staining, cells were incubated for 30 min at 4° C. with FITC-labeled anti-Gr1, anti-CD11c, and anti-CD4; PE-labeled anti F4/80, anti-CD3ε, anti-CD45R/B220, and anti-mNKp46; and biotinylated anti-CD11b and anti-CD8 that were detected with streptavidin-Cy5 (Biolegend and eBioscience). Intracellular staining of CD247 cells was performed by subjecting the cells to fixation with paraformaldehyde (1%) for 20 min at 4° C., followed by washing and permeabilization for 10 min with saponin detergent (0.1%) at room temperature (RT). Cells were then washed and incubated with FITC-labeled monoclonal anti-CD247 (H146) (Abcam), or biotinylated monoclonal anti-CD247 (H146), which were subsequently detected with streptavidin-Cy5. FoxP3 staining was performed according to the manufacturer's instructions. Samples were analyzed using FACSCalibur with Cell Quest software (BD).

[7] = system: CD247; assay: Adoptive transfer of CFSE-labeled normal splenocytes, CD247 in host and donor cells; assay type: in vivo, mice; details: BCG-inflamed hosts, 24 h after transfer, spleen
Protocol: CFSE-labeled splenocytes from normal mice (donor cells) were adoptively transferred into mice untreated, inflamed, and inflamed treated i.p. with irinotecan (hosts). After 24 h, splenocytes from each group were harvested and stained for CD247 expression (MFI) in CD3+ T cells within the CFSE+ (donor-cell) or CFSE− (host-cell) population. Data from three independent experiments (n=4) is presented. Statistical analyses using t test indicated significant differences at 95% Cl. Means and SEM are shown. * P<0.05. Abbreviations: Ho. (host), Do. (donor), cont. (control).
CFSE-labeled splenocytes from normal mice (donor cells) were adoptively transferred into non-inflamed, inflamed, and inflamed mice treated i.p. with 5-FU (hosts). After 24 h, splenocytes from each group were harvested and stained for CD247 expression (MFI) in CD3+ T cells within the CFSE+ (donor-cell) or CFSE− (host-cell) population. Data from three independent experiments (n=4) is presented. Statistical analyses using t test indicated significant differences at 95% Cl. Means and SEM are shown. *, P<0.05. Abbreviations: Ho. (host), Do. (donor), cont. (control).
Next, the effect of etanercept treatment on the host's immune status as well as on adoptively transferred T- and NK-cells was examined. It should be noted that adoptively transferred T- and NK-cells being a treatment that is frequently used today in different immunotherapeutic regiments for various pathologies. To this end, CFSE-labeled normal splenocytes were administered, i.v., 1 day before cell harvest, at the peak of the inflammatory response (mimicking cell mediated therapies).

[8] = Spleen weight and size, BCG chronic inflammation mouse model; assay type: in vivo; details: BCG-inflamed WT-mice, 2 days after third BCG injection
Protocol: FIG. 15B. Spleen weight (left) and size (right) in etanercept-treated and untreated mice (n=7) was evaluated 2 days following the third BCG injection. *P<0.003, **P<0.002 (t-test). Data are from two independent experiments (mean and s.d.).
Induced chronic inflammation in mice was established by sustained subcutaneous injections of the heat-killed Bacille Calmette Guerin strain of Mycobacterium tuberculosis, (231141; Difco Laboratories) (BCG, 50 μg per animal/dose) once a week, for three weeks. The first two BCG administrations were mixed 1:1 with Incomplete Freund's adjuvant (IFA) (Sigma), and the second boost delivery was given with PBS. Mice sacrifice and cell isolations were performed two days after the third injection. Spleen weight was measured and cells from the spleen and peripheral blood (PBLs) were analyzed. The results represent three independent experiments.

| Compound | CD3ε expression levels [1] | levels of Treg cells (CD4+Foxp3+) in spleen [2] | CD247 expression in T cells, spleen [3] | increase in the expression value of CD247 upon treatment [3] | MDSC levels in peripheral blood (PBLs) [4] | MDSC levels in the spleen [4] | NO production by MDSCs [5] | ROS production by MDSCs [5] | CD247 expression in T cells, PBLs [3] | differentiated myeloid cells in spleen (CD11b+CD11c+ DCs, CD11b+F4/80+ macrophages) [6] | CD247 expression in host and adoptively transferred donor NK cells [7] | CD247 expression in host and adoptively transferred donor T cells [7] | spleen size and weight [8] |
| --- | --- | --- | --- | --- | --- | --- | --- | --- | --- | --- | --- | --- | --- |
| CS(=O)(=O)OCCCCOS(C)(=O)=O [Busulfan, 1,4-butanediol dimethanesulfonate] | remained uniform among the different groups | remained unchanged | initial recovery | about 23% | significant decline; also recorded: decrease; also recorded: reduced | significant decline; also recorded: decrease; also recorded: reduced |  |  |  |  |  |  |  |
| O=P1(N(CCCl)CCCl)NCCCO1 (stereo not shown) [Cyclophosphamide] | remained normal | decrease | down-regulation of CD247 that was observed in the course of chronic inflammation was maintained |  | significantly increased; also recorded: significant accumulation | remained high; also recorded: significantly increased | maintained high | maintained high |  |  |  |  |  |
| COc1cccc2c1C(=O)c1c(O)c3c(c(O)c1C2=O)C[C@@](O)(C(=O)CO)C[C@@H]3O[C@H]1C[C@H](N)[C@H](O)[C@H](C)O1 [Doxorubicin] | uniform among the different groups | not affected; also recorded: no change | clear increase | about 24% | significant decline; also recorded: decrease; also recorded: reduced | significant decline; also recorded: decrease; also recorded: reduced |  |  | clear increase |  |  |  |  |
| etanercept |  |  |  |  |  | decreased percentage of MDSCs |  |  |  | significant increase | significantly increased | significantly increased | reduced spleen size and weight |
